ChEMBL document CHEMBL1201862, “PubChem BioAssay data set” (2004)
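Following 48 hours of exposure in 96-well plates, responses at five concentrations were used to interpolate endpoints linearly. GI50 = concentration required for 50% inhibition of growth.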 Active and inactive are the calls of the source. No stated cut-off is given here; in the data, active = GI50 up to about 1.1 µM and inactive = higher.

Columns and labels:
Assay in all cases: NCI tumour cell line growth inhibition, 48 h
786-0 = tested on: 786-0
A549 = tested on: A549
CCRF-CEM = tested on: CCRF-CEM
HCT-116 = tested on: HCT-116
HL-60 = tested on: HL-60
HOP-62 = tested on: HOP-62
HOP-92 = tested on: HOP-92
HT-29 = tested on: HT-29
MOLT-4 = tested on: MOLT-4
OVCAR-3 = tested on: OVCAR-3
OVCAR-4 = tested on: OVCAR-4
OVCAR-8 = tested on: OVCAR-8
SF-295 = tested on: SF-295
SF-539 = tested on: SF-539
SR = tested on: SR
TK-10 = tested on: TK-10
U-251 = tested on: U-251
UACC-257 = tested on: UACC-257
UACC-62 = tested on: UACC-62
UO-31 = tested on: UO-31

Measured: GI50

Nc1ccn(C2CCC(CO)O2)c(=S)n1 (stereo not given)
inactive: 786-0 > 100 µM | A549 > 100 µM | CCRF-CEM > 100 µM | HCT-116 > 100 µM | HL-60 > 100 µM | HOP-62 > 100 µM | HOP-92 > 100 µM | HT-29 > 100 µM | MOLT-4 > 100 µM | OVCAR-3 > 100 µM | OVCAR-4 > 10 µM | OVCAR-8 > 100 µM | SF-295 > 100 µM | SF-539 > 100 µM | SR > 100 µM | TK-10 > 100 µM | U-251 > 100 µM | UACC-257 > 100 µM | UACC-62 > 100 µM | UO-31 > 100 µM

O=C(O)c1nnsc1-c1csnn1
inactive: 786-0 > 100 µM | A549 > 100 µM | CCRF-CEM > 100 µM | HCT-116 > 100 µM | HL-60 > 100 µM | HOP-62 > 100 µM | HOP-92 > 100 µM | HT-29 > 100 µM | MOLT-4 > 100 µM | OVCAR-3 > 100 µM | OVCAR-4 > 100 µM | OVCAR-8 > 100 µM | SF-295 > 100 µM | SF-539 > 100 µM | SR 54.6 µM | TK-10 74.8 µM | U-251 > 100 µM | UACC-257 > 100 µM | UACC-62 > 100 µM | UO-31 > 100 µM

C[C@H]1C(=O)C2=C[C@H]1CCC(=O)[C@]1(C)CCCC(C)(C)[C@H]1C[C@H]2O
inactive: 786-0 17.1 µM | A549 19 µM | CCRF-CEM 15.8 µM | HCT-116 31.7 µM | HL-60 16 µM | HOP-62 97.5 µM | HOP-92 24.3 µM | HT-29 13.9 µM | MOLT-4 22.1 µM | OVCAR-3 29.2 µM | OVCAR-4 48.6 µM | OVCAR-8 17.5 µM | SF-295 33.3 µM | SF-539 15.4 µM | SR 17.5 µM | TK-10 15.3 µM | U-251 15.1 µM | UACC-257 32.3 µM | UACC-62 36.5 µM | UO-31 27.4 µM

N#C[BH2-][n+]1ccc(C(=O)NNCc2cccc(C(F)(F)F)c2)cc1
inactive: 786-0 4.83 µM | A549 13.5 µM | CCRF-CEM 28.4 µM | HCT-116 15.2 µM | HL-60 23.4 µM | HOP-62 12.8 µM | HOP-92 14.9 µM | HT-29 6.01 µM | MOLT-4 17.6 µM | OVCAR-3 10.9 µM | OVCAR-4 6.14 µM | OVCAR-8 3.98 µM | SF-295 6.68 µM | SF-539 4.08 µM | SR 26.9 µM | TK-10 27.3 µM | U-251 7.71 µM | UACC-257 4.92 µM | UACC-62 4.59 µM | UO-31 11.9 µM
